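Grown in 96-well plates, cells were treated for 48 hours with each compound at five concentrations. Insufficient inhibition: endpoint recorded as highest concentration tested. TGI denotes the concentration required for complete inhibition of growth.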
Key:
Experiment in all cases: NCI tumour cell line growth inhibition, 48 h
786-0 renal = test system: 786-0 renal
A549 NSCLC = test system: A549 NSCLC
ACHN renal = test system: ACHN renal
BT-549 breast = test system: BT-549 breast
HCT-116 colon = test system: HCT-116 colon
HS 578T breast = test system: HS 578T breast
IGROV1 ovarian = test system: IGROV1 ovarian
MOLT-4 leukemia = test system: MOLT-4 leukemia
NCI-H522 lung = test system: NCI-H522 lung
OVCAR-3 ovarian = test system: OVCAR-3 ovarian
OVCAR-5 ovarian = test system: OVCAR-5 ovarian
SF-295 CNS = test system: SF-295 CNS
SK-MEL-2 melanoma = test system: SK-MEL-2 melanoma
SK-MEL-5 melanoma = test system: SK-MEL-5 melanoma
SK-OV-3 ovarian = test system: SK-OV-3 ovarian

| Structure (SMILES) | TGI (786-0 renal) [µM] | TGI (A549 NSCLC) [µM] | TGI (ACHN renal) [µM] | TGI (BT-549 breast) [µM] | TGI (HCT-116 colon) [µM] | TGI (HS 578T breast) [µM] | TGI (IGROV1 ovarian) [µM] | TGI (MOLT-4 leukemia) [µM] | TGI (NCI-H522 lung) [µM] | TGI (OVCAR-3 ovarian) [µM] | TGI (OVCAR-5 ovarian) [µM] | TGI (SF-295 CNS) [µM] | TGI (SK-MEL-2 melanoma) [µM] | TGI (SK-MEL-5 melanoma) [µM] | TGI (SK-OV-3 ovarian) [µM] |
| --- | --- | --- | --- | --- | --- | --- | --- | --- | --- | --- | --- | --- | --- | --- | --- |
| C[N+]12C=CC=C1C(N1CCCC1)c1scc(-c3ccc(Br)cc3)c12 (stereo not given) | > 100 | > 100 | > 100 | 17.7 | > 100 | 9.6 | 20.8 | > 65.3 | 9.89 | 39.1 | > 100 | > 100 | 17.3 | 16.1 | > 100 |
| COc1ccc(NC(=S)c2ccc(CN3CCCCC3)s2)cc1 | 36.7 | 47.4 | > 100 | 44 | 35.6 | 43.8 | 49.2 | 61.9 | 32.5 | > 100 | 34.1 | 38.1 | 36.9 | 28 | 31.8 |
| N#C/C(N)=C(\C#N)NC=NCCO | > 100 | > 100 | > 100 | > 100 | > 100 | > 100 | > 100 | > 100 | > 100 | > 100 | > 100 | > 100 | > 100 | > 100 | > 100 |
| O=C1c2ccccc2-n2nnnc2C2CSCN12 (stereo not given) | > 100 | > 100 | > 100 | > 100 | > 100 | > 100 | > 100 | > 100 | > 100 | > 100 | > 100 | > 100 | > 100 | > 100 | > 100 |
| Nc1ncc2c(n1)-c1ccccc1OC2N1CCCCC1 (stereo not given) | > 100 | > 100 | > 100 | > 100 | > 100 | > 100 | > 100 | > 100 | > 100 | > 100 | > 100 | > 100 | > 100 | > 100 | > 100 |
| O=C1c2sc(-c3ccc(Cl)cc3)cc2-n2cccc21 | > 100 | > 100 | > 100 | > 100 | > 100 | > 100 | > 100 | > 100 | > 100 | > 100 | > 100 | > 100 | > 100 | > 100 | > 100 |
| O=C(C(=O)n1ccc2ccccc21)n1ccc2ccccc21 | > 100 | > 100 | > 100 | > 100 | > 100 | > 100 | 53.1 | > 100 | > 100 | > 100 | > 100 | > 100 | > 100 | > 100 | > 100 |
| CC1=C/C(=N\NC(N)=S)C(C(O)(C(F)(F)F)C(F)(F)F)C(C)(C)C1 (stereo not given) | > 10 | > 10 | > 10 | > 10 | > 10 | > 10 | > 10 | > 10 | > 10 | > 10 | > 10 | > 10 | > 10 | > 10 | > 10 |
| O=C1C(Br)=C(Br)C(=O)c2ccc(=O)ccc21 | 32.7 | > 100 | 33.8 | 44.6 | 39.1 | > 84.5 | > 66.1 | 23.5 | 7.25 | 41.8 | > 86.7 | 50.9 | > 75.1 | 44.4 | > 100 |
| COc1ccc(C(SCCO)(c2ccccc2)c2ccc(OC)cc2)cc1 | 29.1 | 27.3 | 29.6 | 36.8 | 22.2 | > 44.1 | 46.2 | 50.2 | 24.9 | 33.9 | 31.6 | 19 | 25.8 | 21.1 | 35.4 |
| CCOC(=O)CCC(NC(=O)C(N)Cc1ccc(N(CCCl)CCCl)cc1)C(=O)OCC (stereo not given) | 2.08 | > 33.4 | 0.692 | 12.4 | 3.54 | 4.93 | 3.93 | 1.99 | 0.853 | 1.68 | 7.19 | 11.7 | 6.05 | 2.93 | 5.3 |
| O=C1/C(=C\c2ccc(Cl)cc2Cl)Sc2scc(-c3ccc(O)c(O)c3)[n+]21 | 31.6 | 44.1 | 46.3 | 46.7 | 29.8 | > 100 | 50.7 | 29.6 | 39.4 | 23.2 | 46.3 | 49.2 | 35.5 | 22.9 | 39.2 |
| COc1ccc(C2c3cc4c(cc3OC3(OC)COC(=O)C23)OCO4)c(OC)c1 (stereo not given) | > 61.3 | > 100 | > 100 | > 100 | > 90.7 | 27.1 | > 100 | 71.2 | > 22.5 | > 63 | > 100 | 98.9 | > 100 | > 90.1 | > 86 |
| O=C(O)Cc1ccc([N+](=O)[O-])cc1[N+](=O)[O-] | > 100 | > 100 | > 100 | > 100 | > 100 | > 100 | > 100 | > 100 | > 100 | > 100 | > 100 | > 100 | > 100 | > 100 | > 100 |

Reference: PubChem BioAssay (NCI)
